This note sets out measurements from patent publication US20240158393A1, “PYRIDONE COMPOUNDS AND METHODS OF USE” (Exelixis, Inc., priority 2021, published 2024).

SMILES strings stand for the structures. Counter-ions that a name gives are not always drawn.

For one experiment, the target named is T1, Human KDR (Homo sapiens, UniProt P35968).
T1 construct: Human KDR (residues K790-V1356, 55 nM); purchased Eurofins Pharma Discovery Services UK Limited (KinaseProfiler, B-1) and/or CarnaBio (B-2)
The experiment is described as follows: Human KDR kinase assay (33P radiometric / HTRF KinEase). The experiment is classed as biochemical. The settings on record: protocols of Examples B-1 and/or B-2. Put shortly:
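Radiometric: KDR K790-V1356 (55 nM), MOPS pH 7.0, myelin basic protein, 10 μM [γ-33P]ATP, 40 min at room temperature, filter-bound 33P counted; nine half-log doses, top 1 μM. HTRF: KDR 790-1356, 1 μM biotinylated peptide, ATP at Km (4.0 μM), 40 min, 10 doses. IC50 from logistic fits.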
A general note: TR-FRET usually uses a lanthanide donor and a delayed reading to cut background.

The target in the next experiment is T2, Human Axl (Homo sapiens, UniProt P30530).
T2 construct: Human AXL (residues 464-885)
T2 sequence (P30530 1-894 Q764R): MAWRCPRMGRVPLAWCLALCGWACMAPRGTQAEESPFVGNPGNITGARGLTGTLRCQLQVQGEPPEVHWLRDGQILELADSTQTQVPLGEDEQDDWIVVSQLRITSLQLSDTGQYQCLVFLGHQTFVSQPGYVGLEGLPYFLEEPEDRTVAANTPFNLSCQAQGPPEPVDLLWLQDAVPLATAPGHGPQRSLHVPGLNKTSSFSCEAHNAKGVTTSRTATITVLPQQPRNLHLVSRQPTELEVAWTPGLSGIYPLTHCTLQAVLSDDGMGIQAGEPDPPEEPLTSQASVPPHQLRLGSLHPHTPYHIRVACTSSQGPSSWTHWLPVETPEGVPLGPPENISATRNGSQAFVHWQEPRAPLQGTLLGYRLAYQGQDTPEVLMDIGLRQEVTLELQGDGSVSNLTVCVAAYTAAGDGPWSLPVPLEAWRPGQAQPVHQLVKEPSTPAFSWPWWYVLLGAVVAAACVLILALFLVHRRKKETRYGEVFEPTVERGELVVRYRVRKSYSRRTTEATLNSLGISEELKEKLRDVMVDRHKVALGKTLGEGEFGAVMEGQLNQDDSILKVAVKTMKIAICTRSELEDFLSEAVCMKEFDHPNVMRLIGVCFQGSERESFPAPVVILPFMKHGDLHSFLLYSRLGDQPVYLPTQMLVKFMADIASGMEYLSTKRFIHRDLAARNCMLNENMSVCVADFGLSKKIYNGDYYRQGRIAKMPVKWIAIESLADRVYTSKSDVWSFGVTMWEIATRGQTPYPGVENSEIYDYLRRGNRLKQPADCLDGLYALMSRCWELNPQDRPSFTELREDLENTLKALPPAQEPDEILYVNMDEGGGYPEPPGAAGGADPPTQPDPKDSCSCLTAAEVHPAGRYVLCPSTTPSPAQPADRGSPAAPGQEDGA
The experiment can be described thus: Human AXL kinase assay (33P radiometric / HTRF KinEase). The settings on record: protocols of Examples A-1 and/or A-2. The experiment is classed as biochemical.

T1 sequence (P35968 790-1356): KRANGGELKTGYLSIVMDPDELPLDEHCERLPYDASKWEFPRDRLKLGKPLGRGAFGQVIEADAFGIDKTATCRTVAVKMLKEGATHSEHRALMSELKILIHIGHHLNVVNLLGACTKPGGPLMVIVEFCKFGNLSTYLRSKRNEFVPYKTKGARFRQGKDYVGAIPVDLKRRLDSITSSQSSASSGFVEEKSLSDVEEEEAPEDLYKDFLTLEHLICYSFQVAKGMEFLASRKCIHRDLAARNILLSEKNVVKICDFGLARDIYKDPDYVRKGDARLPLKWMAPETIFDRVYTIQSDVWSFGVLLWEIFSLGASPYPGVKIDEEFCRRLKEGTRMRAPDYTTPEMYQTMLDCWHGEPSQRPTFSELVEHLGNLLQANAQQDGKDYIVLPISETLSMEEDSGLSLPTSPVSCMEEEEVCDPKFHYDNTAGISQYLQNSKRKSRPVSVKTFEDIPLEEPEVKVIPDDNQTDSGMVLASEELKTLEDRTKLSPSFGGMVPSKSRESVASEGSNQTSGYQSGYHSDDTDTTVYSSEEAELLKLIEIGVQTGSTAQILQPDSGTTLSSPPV

Turning to `C=C(C)c1c(C)n(C)c(C)c(C(=O)Nc2ccc(Oc3ccnc4cc(OC)c(OC)nc34)c(F)c2)c1=O` [Compound 52, N-[4-[(6,7-Dimethoxy-1,5-naphthyridin-4-yl)oxy]-3-fluorophenyl]-1,2,6-trimethyl-4-oxo-5-prop-1-en-2-ylpyridine-3-carboxamide], the IC50 was more than 300 nM on Human KDR and not above 100 nM against Human Axl.

For `COc1cc2nccc(Oc3ccc(NC(=O)c4c(C)n(C)c(C)c(C5=CCOCC5)c4=O)cc3F)c2nc1OC` [Compound 53, 5-(3,6-Dihydro-2H-pyran-4-yl)-N-[4-[(6,7-dimethoxy-1,5-naphthyridin-4-yl)oxy]-3-fluorophenyl]-1,2,6-trimethyl-4-oxopyridine-3-carboxamide], the IC50 at Human KDR was more than 300 nM; on Human Axl, not above 100 nM.

`COCCOc1cc2nccc(Oc3ccc(NC(=O)c4c(C)n(C)c(C)c(/C=C/C5CCCC5)c4=O)cc3F)c2nc1OC` [Compound 54, 5-[(E)-2-Cyclopentylethenyl]-N-[3-fluoro-4-[[6-methoxy-7-(2-methoxyethoxy)-1,5-naphthyridin-4-yl]oxy]phenyl]-1,2,6-trimethyl-4-oxopyridine-3-carboxamide]: the IC50 was 100 to 300 nM against Human KDR and not above 100 nM at Human Axl.

As for `C=C(C)c1c(C)n(C)c(C)c(C(=O)Nc2ccc(Oc3ccnc4cc(OC)c(OC)nc34)cc2)c1=O` [Compound 55, N-[4-[(6,7-Dimethoxy-1,5-naphthyridin-4-yl)oxy]phenyl]-1,2,6-trimethyl-4-oxo-5-prop-1-en-2-ylpyridine-3-carboxamide], the IC50 is more than 300 nM on Human KDR and not above 100 nM against Human Axl.

For `COCCOc1cc2nccc(Oc3ccc(NC(=O)c4c(C)n(C)c(C)c(C5=CCCCC5)c4=O)cc3F)c2nc1OC` [Compound 58, 5-(Cyclohexen-1-yl)-N-[3-fluoro-4-[[6-methoxy-7-(2-methoxyethoxy)-1,5-naphthyridin-4-yl]oxy]phenyl]-1,2,6-trimethyl-4-oxopyridine-3-carboxamide], the IC50 against Human KDR and against Human Axl was not above 100 nM in each case.

On to `COCCOc1cnc2c(Oc3ccc(NC(=O)c4c(C)n(C)c(C)c(C5=CCCC5)c4=O)cc3F)ccnc2c1` [Compound 65, 5-(Cyclopenten-1-yl)-N-[3-fluoro-4-[[7-(2-methoxyethoxy)-1,5-naphthyridin-4-yl]oxy]phenyl]-1,2,6-trimethyl-4-oxopyridine-3-carboxamide], for which the IC50 at Human KDR was 100 to 300 nM; against Human Axl it was not above 100 nM.

With `COCCOc1cnc2c(Oc3ccc(NC(=O)c4c(C)n(C)c(C)c(C5=CCCCC5)c4=O)cc3F)ccnc2c1` [Compound 66, 5-(Cyclohexen-1-yl)-N-[3-fluoro-4-[[7-(2-methoxyethoxy)-1,5-naphthyridin-4-yl]oxy]phenyl]-1,2,6-trimethyl-4-oxopyridine-3-carboxamide], the IC50 was more than 300 nM against Human KDR and not above 100 nM at Human Axl.

As to `COc1cc2nccc(Oc3ccc(NC(=O)c4c5n(c(C)c(C6=CCOCC6)c4=O)CCOC5)cc3)c2nc1OC` [Compound 73, 7-(3,6-Dihydro-2H-pyran-4-yl)-N-[4-[(6,7-dimethoxy-1,5-naphthyridin-4-yl)oxy]phenyl]-6-methyl-8-oxo-3,4-dihydro-1H-pyrido[2,1-c][1,4]oxazine-9-carboxamide], the IC50 against Human KDR was more than 300 nM; on Human Axl, not above 100 nM.

Take `COc1nc2c(Oc3ccc(NC(=O)c4c(C)n(C)c(C)c(C5=CCCC5)c4=O)cc3F)ccnc2cc1OCCC1CCC1` [Compound 74, N-[4-[[7-(2-Cyclobutylethoxy)-6-methoxy-1,5-naphthyridin-4-yl]oxy]-3-fluorophenyl]-5-(cyclopenten-1-yl)-1,2,6-trimethyl-4-oxopyridine-3-carboxamide]: the IC50 on Human KDR and against Human Axl was not above 100 nM throughout.

As to `COc1cc2nccc(Oc3ccc(NC(=O)c4cnc(C)c(C5=CCCC5)c4O)cc3F)c2nc1OC` [Compound G1-2, 5-(Cyclopenten-1-yl)-N-[4-[(6,7-dimethoxy-1,5-naphthyridin-4-yl)oxy]-3-fluorophenyl]-4-hydroxy-6-methylpyridine-3-carboxamide hydrochloride], the IC50 on Human KDR and against Human Axl was not above 100 nM in each case.

For `COc1cc2nccc(Oc3ccc(NC(=O)c4cnc(C)c(C5=CCCCC5)c4O)cc3F)c2nc1OC` [Compound G1-3, 5-(Cyclohexen-1-yl)-N-[4-[(6,7-dimethoxy-1,5-naphthyridin-4-yl)oxy]-3-fluorophenyl]-4-hydroxy-6-methylpyridine-3-carboxamide], the IC50 against Human KDR and on Human Axl was not above 100 nM throughout.

`COc1cc2nccc(Oc3ccc(NC(=O)c4c5n(cc(C6=CCCCC6)c4=O)CCOC5)cc3F)c2nc1OC` [Compound G1-4, 7-(Cyclohexen-1-yl)-N-[4-[(6,7-dimethoxy-1,5-naphthyridin-4-yl)oxy]-3-fluorophenyl]-8-oxo-3,4-dihydro-1H-pyrido[2,1-c][1,4]oxazine-9-carboxamide]: the 50% inhibitory concentration (IC50) at Human KDR and against Human Axl was not above 100 nM in each case.

The term IC50 denotes the concentration needed to halve the response being measured. Higher therefore signals a need for much substance.
